Measured values published in patent publication US8962843B2, “1,3,4-oxadiazole and 1,3,4-thiadiazole beta-lactamase inhibitors” (priority 2012, dated 2015).
Structures can show the parent of a compound that is named as a salt.

Key:
[1] = tested on: bacterial strains that express the class D cephalosporinase OXA-15; assay: Standard BLI potentiation MIC / synergy MIC assays, strains expressing OXA-15; type: cell-based, E. coli; conditions: in combination with a β-lactam; comparator Avibactam (CCC)
Protocol: (§1) The experimental protocol was performed according to Clinical and Laboratory Standards Institute (CLSI) guidelines with modifications as described below (CLSI guidelines can be derived from the CLSI document M07-A9 published in January 2012: “Methods for Dilution Antimicrobial Susceptibility Tests for Bacteria That Grow Aerobically; Approved Standard-Ninth Edition”).
(§2) To prepare for MIC testing, frozen glycerol stocks of clinical isolates (Klebsiella pneumoniae, Eschericia coli, Enterobacter spp, Citrobacter spp, or Pseudomonas aeruginosa) were used to streak for isolated colonies on rich, non-selective, tryptic soy agar containing 5% sheep's blood (TSAB). Frozen glycerol stocks of laboratory engineered, isogenic E. coli strains, which contain cloned β-lactamase expressing plasmids were used to streak for isolated colonies on rich, selective LB agar supplemented with 25 μg/mL tetracycline to maintain the plasmid. All strains were incubated at 37° C. for 18-24 hrs.
(§3) On the day of testing, primary cultures were started by scraping off 5-10 colonies from the TSAB plates containing clinical strains or the tetracycline supplemented LB plates containing engineered strains. The clinical strain material was suspended in ˜5 mL of cation adjusted Mueller Hinton Broth (CAMHB) in 14 mL culture tubes. The engineered strain material was suspended in CAMHB (supplemented with 25 μg/mL tetracycline) in 14 mL culture tubes. All strains were incubated at 37° C. with aeration (200 rpm) for ˜2 hrs until the optical density at 600 nm (OD600) was >0.1.
(§4) The two compound components of the assay were each diluted in CAMHB and added to the 96-well broth microdilution assay plates. 50 μL of the β-lactam was added to each well of the assay plate in 2-fold dilutions with final concentrations ranging from 128 to 0.13 μg/mL. 25 μL of the BLI compound was added to all wells in the broth microdilution plates at a final concentration of 4 μg/mL. Inoculum cultures were prepared by standardizing the primary cultures to OD600=0.1 and then adding 20 μL of the adjusted primary culture per 1 mL CAMHB for clinical strains or CAMHB (supplemented with tetracycline at 100 μg/mL) for engineered strains, so that the final inoculum density was ˜10^5 colony forming units per milliliter. Diluted inoculum cultures were used to inoculate 25 μl, per well in 96-well broth microdilution assay plates. The final volume of each well was 100 μL and contained a β-lactam at different concentrations, a BLlcompound at 4 μg/mL concentration, the bacterial culture at an OD600 of approximately 0.001 and when necessary tetracycline at 25 μg/mL.
(§5) Plates were incubated for 18-20 hours at 37° C. with aeration (200 rpm). Following incubation, growth was confirmed visually placing plates over a viewing apparatus (stand with a mirror underneath) and then OD600 was measured using a SpectraMax 340PC384 plate reader (Molecular Devices, Sunnyvale, Calif.). Growth was defined as turbidity that could be detected with the naked eye or achieving minimum OD600 of 0.1. MIC values were defined as the lowest concentration producing no visible turbidity.
(§6) The synergy MIC (sMIC) assay determines the concentration of the BLI required to potentiate the activity of a fixed concentration of a β-lactam antibiotic against β-lactamase producing bacterial strains. The experimental protocol was performed according to Clinical and Laboratory Standards Institute (CLSI) guidelines with modifications as described below (CLSI guidelines can be derived from the CLSI document M07-A9 published in January 2012: “Methods for Dilution Antimicrobial Susceptibility Tests for Bacteria That Grow Aerobically; Approved Standard-Ninth Edition”). […]

[2] = tested on: bacterial strains that express KPC β-lactamases; assay: Standard BLI potentiation MIC / synergy MIC assays, strains expressing KPC β-lactamases; type: cell-based; conditions: in combination with a β-lactam; comparator Avibactam
Protocol: as §1, §2, §3, §4, §5, §6

| Structure (SMILES) | activity against bacterial strains that express the class D cephalosporinase OXA-15, compared with Avibactam [1] | activity and/or spectrum of activity against bacterial strains that express KPC β-lactamases, compared with Avibactam [2] |
| --- | --- | --- |
| N[C@H]1C[C@@H](CCc2nnc([C@@H]3CC[C@@H]4CN3C(=O)N4OS(=O)(=O)O)o2)C1 [Compound 754, (2S,5R)-2-(5-(2-((1s,3S)-3-aminocyclobutyl)ethyl)-1,3,4-oxadiazol-2-yl)-7-oxo-1,6-diazabicyclo[3.2.1]octan-6-yl hydrogen sulfate] | more active than Avibactam | more active than Avibactam for at least one, bacterial strain that expresses KPC β-lactamase and/or show a better spectrum of activity |
| O=C1N2C[C@@H](CC[C@H]2c2nnc([C@H]3CNCCN3)o2)N1OS(=O)(=O)O [Compound 779, (2S,5R)-7-oxo-2-(5((R)-piperazin-2-yl)-1,3,4-oxadiazol-2-yl)-1,6-diazabicyclo[3.2.1]octan-6-yl hydrogen sulfate] | more active than Avibactam | more active than Avibactam for at least one, bacterial strain that expresses KPC β-lactamase and/or show a better spectrum of activity |
| N=C(N)NC1(Cc2nnc([C@@H]3CC[C@@H]4CN3C(=O)N4OS(=O)(=O)O)o2)CC1 [Compound 739, (2S,5R)-2-(5-((1-guanidinocyclopropyl)methyl)-1,3,4-oxadiazol-2-yl)-7-oxo-1,6-diazabicyclo[3.2.1]octan-6-yl hydrogen sulfate] | more active than Avibactam | more active than Avibactam for at least one, bacterial strain that expresses KPC β-lactamase and/or show a better spectrum of activity |
| N[C@H]1C[C@H](c2nnc([C@@H]3CC[C@@H]4CN3C(=O)N4OS(=O)(=O)O)s2)C1 [Compound 783, (2S,5R)-2-(5-((1r,3S)-3-aminocyclobutyl)-1,3,4-thiadiazol-2-yl)-7-oxo-1,6-diazabicyclo[3.2.1]octan-6-yl hydrogen sulfate] | more active than Avibactam | more active than Avibactam for at least one, bacterial strain that expresses KPC β-lactamase and/or show a better spectrum of activity |
| N[C@H]1CC[C@@H](c2nnc([C@@H]3CC[C@@H]4CN3C(=O)N4OS(=O)(=O)O)o2)C1 [Compound 768, (2S,5R)-2-(5-((1R,3S)-3-aminocyclopentyl)-1,3,4-oxadiazol-2-yl)-7-oxo-1,6-diazabicyclo[3.2.1]octan-6-yl hydrogen sulfate] | more active than Avibactam | more active than Avibactam for at least one, bacterial strain that expresses KPC β-lactamase and/or show a better spectrum of activity |
| N[C@H]1CN[C@H](c2nnc([C@@H]3CC[C@@H]4CN3C(=O)N4OS(=O)(=O)O)o2)C1 [Compound 762, (2S,5R)-2-(5-((2S,4R)-4-aminopyrrolidin-2-yl)-1,3,4-oxadiazol-2-yl)-7-oxo-1,6-diazabicyclo[3.2.1]octan-6-yl hydrogen sulfate] | more active than Avibactam | more active than Avibactam for at least one, bacterial strain that expresses KPC β-lactamase and/or show a better spectrum of activity |
| O=C1N2C[C@@H](CC[C@H]2c2nnc(CN[C@H]3CCNC3)o2)N1OS(=O)(=O)O [Compound 765, (2S,5R)-7-oxo-2-(5-(((S)-pyrrolidin-3-ylamino)methyl)-1,3,4-oxadiazol-2-yl)-1,6-diazabicyclo[3.2.1]octan-6-yl hydrogen sulfate] | more active than Avibactam | more active than Avibactam for at least one, bacterial strain that expresses KPC β-lactamase and/or show a better spectrum of activity |
| NCCc1nnc([C@@H]2CC[C@@H]3CN2C(=O)N3OS(=O)(=O)O)o1 [Compound 703, (2S,5R)-2-(5-(2-aminoethyl)-1,3,4-oxadiazol-2-yl)-7-oxo-1,6-diazabicyclo[3.2.1]octan-6-yl hydrogen sulfate] | more active than Avibactam | more active than Avibactam for at least one, bacterial strain that expresses KPC β-lactamase and/or show a better spectrum of activity |
| O=C1N2C[C@@H](CC[C@H]2c2nnc(CN3CCNCC3)o2)N1OS(=O)(=O)O [Compound 777, (2S,5R)-7-oxo-2-(5-(piperazin-1-ylmethyl)-1,3,4-oxadiazol-2-yl)-1,6-diazabicyclo[3.2.1]octan-6-yl hydrogen sulfate] | more active than Avibactam | more active than Avibactam for at least one, bacterial strain that expresses KPC β-lactamase and/or show a better spectrum of activity |
| CNCCCc1nnc([C@@H]2CC[C@@H]3CN2C(=O)N3OS(=O)(=O)O)o1 [Compound 734, (2S,5R)-2-(5-β-(methylamino)propyl)-1,3,4-oxadiazol-2-yl)-7-oxo-1,6-diazabicyclo[3.2.1]octan-6-yl hydrogen sulfate] | more active than Avibactam | more active than Avibactam for at least one, bacterial strain that expresses KPC β-lactamase and/or show a better spectrum of activity |
| N[C@H]1C[C@H](c2nnc([C@@H]3CC[C@@H]4CN3C(=O)N4OS(=O)(=O)O)o2)C1 [Compound 727, (2S,5R)-2-(5-((1r,3S)-3-aminocyclobutyl)-1,3,4-oxadiazol-2-yl)-7-oxo-1,6-diazabicyclo[3.2.1]octan-6-yl hydrogen sulfate] | more active than Avibactam | more active than Avibactam for at least one, bacterial strain that expresses KPC β-lactamase and/or show a better spectrum of activity |
| O=C1N2C[C@@H](CC[C@H]2c2nnc(CCCNC3CCNCC3)o2)N1OS(=O)(=O)O [Compound 771, (2S,5R)-7-oxo-2-(5-(3-(piperidin-4-ylamino)propyl)-1,3,4-oxadiazol-2-yl)-1,6-diazabicyclo[3.2.1]octan-6-yl hydrogen sulfate] | more active than Avibactam | more active than Avibactam for at least one, bacterial strain that expresses KPC β-lactamase and/or show a better spectrum of activity |
| N[C@H]1C[C@@H](c2nnc([C@@H]3CC[C@@H]4CN3C(=O)N4OS(=O)(=O)O)s2)C1 [Compound 795, (2S,5R)-2-(5-((1s,3R)-3-aminocyclobutyl)-1,3,4-thiadiazol-2-yl)-7-oxo-1,6-diazabicyclo[3.2.1]octan-6-yl hydrogen sulfate] | more active than Avibactam | more active than Avibactam for at least one, bacterial strain that expresses KPC β-lactamase and/or show a better spectrum of activity |
| N=C(N)NCCc1nnc([C@@H]2CC[C@@H]3CN2C(=O)N3OS(=O)(=O)O)s1 [Compound 794, (2S,5R)-2-(5-(2-guanidinoethyl)-1,3,4-thiadiazol-2-yl)-7-oxo-1,6-diazabicyclo[3.2.1]octan-6-yl hydrogen sulfate] | more active than Avibactam | more active than Avibactam for at least one, bacterial strain that expresses KPC β-lactamase and/or show a better spectrum of activity |
